Experimental data published in US4521422A, “Aryl and heteroaryl[7-(aryl and heteroaryl)pyrazolo[1,5-a]pyrimidin-3-yl]methanones” (American Cyanamid Company, priority 1984, dated 1985).

test system: Clonic Seizures Caused by Pentylenetetrazole in Rats; assay: Protection against clonic seizures caused by pentylenetetrazole in rats; format: in vivo; conditions: Rattus norvegicus; dose 25.0 mg/kg, oral or i.p.; pentylenetetrazole 23 mg/kg i.v. at 30 or 60 min; read-out: % of Rats Protected
Protocol: The anti-anxiety and anticonvulsant properties of the novel compounds of the present invention have been established in a test which indicates anxiolytic and antiepileptic activity by the measure of protection from convulsions resulting from the administration of pentylenetetrazole. Single or graded dose levels of the test compounds were administered orally or intraperitoneally in a 2% starch vehicle, containing 0.5% v/v polyethylene glycol and one drop of Polysorbate 80 to groups of at least 4 rats. At 30 or 60 minutes, the rats were treated intravenously with pentylenetetrazole at a dose of 23 mg/kg of body weight. This dose is estimated to cause clonic seizures in 99% of unprotected rats. It has been reported [R. T. Hill and D. H. Tedeschi, "Animal Testing and Screening Procedures in Evaluating Psychotropic Drugs" in "An Introduction to Psychopharmacology", Eds. R. R. Rech and K. E. Moore, Raven Press, New York, pp 237-288 (1971)] that there is a high degree of correlation between antagonism of pentylenetetrazole seizures in rats and anti-anxietyor anticonvulsant effects in higher warm-blooded animals.

Compound	responders at 25 mg/kg [%]
O=C(c1ccc2c(c1)OCO2)c1cnn2c(-c3ccncc3)ccnc12 [1,3-benzodioxol-5-yl[7-(4-pyridinyl)pyrazolo[1,5-a]pyrimidin-3-yl]methanone]	25
O=C(c1ccc2ccccc2c1)c1cnn2c(-c3cccnc3)ccnc12 [2-naphthalenyl[7-(3-pyridinyl)pyrazolo[1,5-a]pyrimidin-3-yl]methanone]	25
O=C(c1ccccn1)c1cnn2c(-c3ccc(C(F)(F)F)cc3)ccnc12 [2-pyridinyl[7-[4-(trifluoromethyl)phenyl]pyrazolo[1,5-a]pyrimidin-3-yl]methanone]	25
O=C(c1cccs1)c1cnn2c(-c3ccc(C(F)(F)F)cc3)ccnc12 [2-thienyl[7-[4-(trifluoromethyl)phenyl]pyrazolo[1,5-a]pyrimidin-3-yl]methanone]	25
O=C(c1ccsc1)c1cnn2c(-c3cccc(C(F)(F)F)c3)ccnc12 [3-thienyl[7-[3-(trifluoromethyl)phenyl]pyrazolo[1,5-a]pyrimidin-3-yl]methanone]	75
N#Cc1ccc(-c2ccnc3c(C(=O)c4ccc(F)cc4)cnn23)cc1 [4-[3-(4-fluorobenzoyl)pyrazolo[1,5-a]pyrimidin-7-yl]benzonitrile]	50
O=C(c1cc(Cl)ccc1Cl)c1cnn2c(-c3cccnc3)ccnc12 [(2,5-dichlorophenyl)[7-(3-pyridinyl)pyrazolo[1,5-a]pyrimidin-3-yl]methanone]	25
O=C(c1cc(Cl)ccc1Cl)c1cnn2c(-c3ccc(F)cc3)ccnc12 [(2,5-dichlorophenyl)[7-(4-fluorophenyl)pyrazolo[1,5-a]pyrimidin-3-yl]methanone]	25
O=C(c1cc(Cl)ccc1Cl)c1cnn2c(-c3ccncc3)ccnc12 [(2,5-dichlorophenyl)[7-(4-pyridinyl)pyrazolo[1,5-a]pyrimidin-3-yl]methanone]	25
O=C(c1ccccc1Cl)c1cnn2c(-c3ccncc3)ccnc12 [(2-chlorophenyl)[7-(4-pyridinyl)pyrazolo[1,5-a]pyrimidin-3-yl]methanone]	25
COc1ccccc1C(=O)c1cnn2c(-c3cccnc3)ccnc12 [(2-methoxyphenyl)[7-(3-pyridinyl)pyrazolo[1,5-a]pyrimidin-3-yl]methanone]	75
Cc1ccccc1C(=O)c1cnn2c(-c3cccnc3)ccnc12 [(2-methylphenyl)[7-(3-pyridinyl)pyrazolo[1,5-a]pyrimidin-3-yl]methanone]	25
Cc1ccccc1C(=O)c1cnn2c(-c3ccncc3)ccnc12 [(2-methylphenyl)[7-(4-pyridinyl)pyrazolo[1,5-a]pyrimidin-3-yl]methanone]	25
Cc1ccccc1C(=O)c1cnn2c(-c3ccc(C(F)(F)F)cc3)ccnc12 [(2-methylphenyl)[7-[4-(trifluoromethyl)phenyl]pyrazolo[1,5-a]pyrimidin-3-yl]methanone]	25
COc1ccc(C(=O)c2cnn3c(-c4cc(OC)c(OC)c(OC)c4)ccnc23)cc1OC [(3,4-dimethoxyphenyl)[7-(3,4,5-trimethoxyphenyl)pyrazolo[1,5-a]pyrimidin-3-yl]methanone]	75
COc1ccc(C(=O)c2cnn3c(-c4ccncc4)ccnc23)cc1OC [(3,4-dimethoxyphenyl)[7-(4-pyridinyl)pyrazolo[1,5-a]pyrimidin-3-yl]methanone]	50
O=C(c1cccc(Cl)c1)c1cnn2c(-c3cccnc3)ccnc12 [(3-chlorophenyl)[7-(3-pyridinyl)pyrazolo[1,5-a]pyrimidin-3-yl]methanone]	50

Compound	responders at 25 mg/kg [%]
O=C(c1cccc(Cl)c1)c1cnn2c(-c3ccc(F)cc3)ccnc12 [(3-chlorophenyl)[7-(4-fluorophenyl)pyrazolo[1,5-a]pyrimidin-3-yl]methanone]	25
O=C(c1cccc(Cl)c1)c1cnn2c(-c3ccncc3)ccnc12 [(3-chlorophenyl)[7-(4-pyridinyl)pyrazolo[1,5-a]pyrimidin-3-yl]methanone]	50
COc1cccc(C(=O)c2cnn3c(-c4ccncc4)ccnc23)c1 [(3-methoxyphenyl)[7-(4-pyridinyl)pyrazolo[1,5-a]pyrimidin-3-yl]methanone]	50
Cc1cccc(C(=O)c2cnn3c(-c4ccncc4)ccnc23)c1 [(3-methylphenyl)[7-(4-pyridinyl)pyrazolo[1,5-a]pyrimidin-3-yl]methanone]	100
COc1ccc(C(=O)c2cnn3c(-c4ccc[n+]([O-])c4)ccnc23)cc1 [(4-Methoxyphenyl)[7-(3-pyridinyl)pyrazolo[1,5-a]pyrimidin-3-yl]methanone, pyridine-1-oxide]	25
Cc1cc(-c2cccc(C(F)(F)F)c2)n2ncc(C(=O)c3ccc(Cl)cc3)c2n1 [(4-chlorophenyl)[5-methyl-7-[3-(trifluoromethyl)phenyl]pyrazolo[1,5-a]pyrimidin-3-yl]methanone]	25
CCOc1ccc(C(=O)c2cnn3c(-c4cccnc4)ccnc23)cc1 [(4-ethoxyphenyl)[7-(3-pyridinyl)pyrazolo[1,5-a]pyrimidin-3-yl]methanone]	25
Cc1cc(-c2cccc(C(F)(F)F)c2)n2ncc(C(=O)c3ccc(F)cc3)c2n1 [(4-fluorophenyl)[5-methyl-7-[3-(trifluoromethyl)phenyl]pyrazolo[1,5-a]pyrimidin-3-yl]methanone]	25
Cc1cnc2c(C(=O)c3ccc(F)cc3)cnn2c1-c1cccnc1 [(4-fluorophenyl)[6-methyl-7-(3-pyridinyl)pyrazolo[1,5-a]pyrimidin-3-yl]methanone]	75
O=C(c1ccc(F)cc1)c1cnn2c(-c3ccc(C(F)(F)F)cc3)ccnc12 [(4-fluorophenyl)[7-[4-(trifluoromethyl)phenyl]pyrazolo[1,5-a]pyrimidin-3-yl]methanone]	50
COc1ccc(C(=O)c2cnn3c(-c4ccncc4)ccnc23)cc1 [(4-methoxyphenyl)[7-(4-pyridinyl)pyrazolo[1,5-a]pyrimidin-3-yl]methanone]	25
Cc1ccc(C(=O)c2cnn3c(-c4cccnc4)ccnc23)s1 [(5-methyl-2-thienyl)[7-(3-pyridinyl)pyrazolo[1,5-a]pyrimidin-3-yl]methanone]	25
O=C(c1ccccc1)c1cnn2c(-c3ccc[n+]([O-])c3)ccnc12 [Phenyl[7-(3-pyridinyl)pyrazolo[1,5-a]pyrimidin-3-yl]methanone, pyridine-1-oxide]	25
Cc1nn2c(-c3ccncc3)ccnc2c1C(=O)c1ccccc1 [[2-methyl-7-(4-pyridinyl)pyrazolo[1,5-a]pyrimidin-3-yl]phenylmethanone]	25
CN(C)c1ccc(C(=O)c2cnn3c(-c4ccncc4)ccnc23)cc1 [[4-(dimethylamino)phenyl][7-(4-pyridinyl)pyrazolo[1,5-a]pyrimidin-3-yl]methanone]	75
O=C(c1ccc(C(F)(F)F)cc1)c1cnn2c(-c3ccc(C(F)(F)F)cc3)ccnc12 [[4-(trifluoromethyl)phenyl][7-[4-(trifluoromethyl)phenyl]pyrazolo[1,5-a]pyrimidin-3-yl]methanone]	25
